Results from patent US20060276464A1, “Diarylsulfone sulfonamides and use thereof” (Wyeth, priority 2005, published 2006).
Where “and” joins values, the source holds several entries; their conditions need not be identical. Equal entries are not always repeated. Where two headings read alike, the source gives them in different places.

Key:
SFRP-1 [1] = biological target: T1, SFRP-1 (Homo sapiens, UniProt Q8N474); test: Fluorescence polarization binding assay (competitive displacement of a probe compound from SFRP-1); details: fluorescence anisotropy, 45 nM SFRP-1, 20 nM probe;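 note: test compound competes with a fluorescent probe held by SFRP-1, seen as a drop in probe anisotropy after incubation in darkness, with anisotropy as function of rising compound dose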
T1 sequence (Q8N474 32-314): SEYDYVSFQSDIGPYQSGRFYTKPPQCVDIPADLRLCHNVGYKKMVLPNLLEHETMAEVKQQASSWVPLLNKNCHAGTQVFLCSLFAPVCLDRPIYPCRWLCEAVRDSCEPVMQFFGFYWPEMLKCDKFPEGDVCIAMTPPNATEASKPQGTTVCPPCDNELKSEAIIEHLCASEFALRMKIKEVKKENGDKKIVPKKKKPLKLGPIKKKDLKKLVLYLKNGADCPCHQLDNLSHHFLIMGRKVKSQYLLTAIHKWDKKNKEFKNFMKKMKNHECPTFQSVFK

SFRP-1 [2] = biological target: T1, SFRP-1; test: Cell-based assay for in vitro measurement of SFRP-1/SARP2 antagonist activity (U2OS cells co-transfected with 16x TCF-tk-Luciferase reporter, Wnt and hSFRP-1); details: for fold induction at 10 µM / fold induction at 15 µM: U2OS; for fold induction at 10 µM: read-out: Fold Induction with SFRP-1, U2OS cells, single dose 10 μM, luciferase reporter, fold induction over SFRP-1 control; for fold induction at 15 µM: single dose, luciferase reporter;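 for all read-outs here: U2OS cells co-transfected with a TCF-tk luciferase reporter, a Wnt vector, hSFRP-1 or empty vector and CMV-βgal, luciferase luminescence read in cell lysates alongside βgal activity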
[3] = read-out: Fold Induction with SFRP-1, Conc 15 μM, fold induction over SFRP-1 control, cells with SFRP-1
[4] = read-out: Fold Induction without SFRP-1, Conc 15 μM, cells without SFRP-1 (specificity control)

Compound	IC50 (SFRP-1 [1])	melting point	EC50 (SFRP-1 [2])	fold induction at 10 µM (SFRP-1 [2])	fold induction at 15 µM (SFRP-1 [2]; [3])	fold induction at 15 µM (SFRP-1 [2]; [4])
CC(C)c1cc(C(C)C)c(S(=O)(=O)c2ccc(F)cc2)cc1S(=O)(=O)NCCc1ccccc1 [Example 619, 5-[(4-Fluorophenyl)sulfonyl]-2,4-diisopropyl-N-(2-phenylethyl)benzenesulfonamide]	–	154 to 156 °C	–	–	1.3	1.1
CC(C)c1ccc(S(=O)(=O)c2ccccc2)cc1S(=O)(=O)NC1C[C@H]2CC[C@@H](C1)N2C.Cl (relative stereo) [Example 860, 2-Isopropyl-N-[(1R*,5S*)-8-methyl-8-azabicyclo[3.2.1]oct-3-yl]-5-(phenylsulfonyl)benzenesulfonamide monohydrochloride]	800 nM	90 °C	–	4.1	–	–
CCCc1ccc(S(=O)(=O)c2ccccc2)cc1S(=O)(=O)NCCCn1ccnc1 [Example 556, N-[3-(1H-Imidazol-1-yl)propyl]-5-(phenylsulfonyl)-2-propylbenzenesulfonamide]	300 nM	143 to 146 °C	–	–	4	1.2
O=S(=O)(NCCc1ccccc1)c1cc(S(=O)(=O)c2ccccc2)ccc1C(F)(F)F [Example 570, N-(2-Phenylethyl)-5-(phenylsulfonyl)-2-(trifluoromethyl)-benzenesulfonamide]	160 nM	151 to 153 °C	–	–	2.4	1.2
CC(C)c1cc(C(C)C)c(S(=O)(=O)c2ccccc2)cc1S(=O)(=O)NC1CCOCC1 [Example 610, 2,4-Diisopropyl-5-(phenylsulfonyl)-N-(tetrahydro-2H-pyran-4-yl)benzenesulfonamide]	900 nM	159 to 160 °C	–	–	2.5	1.1
O=S(=O)(NCCc1ccccn1)c1cc(S(=O)(=O)c2ccccc2)ccc1C(F)(F)F [Example 571, 5-(Phenylsulfonyl)-N-(2-pyridin-2-ylethyl)-2-(trifluoromethyl)benzenesulfonamide]	130 nM and 300 nM	149 to 151 °C	–	–	3.1	1.2
CC(C)c1cc(C(C)C)c(S(=O)(=O)c2ccccc2)cc1S(=O)(=O)NC1Cc2ccccc2C1 [Example 618, N-(2,3-Dihydro-1H-inden-2-yl)-2,4-diisopropyl-5-(phenylsulfonyl)benzenesulfonamide]	–	215 to 217 °C	–	–	2.8	1.1
CC(C)c1cc(C(C)C)c(S(=O)(=O)c2ccc(F)cc2)cc1S(=O)(=O)NCCc1ccncc1 [Example 633, 5-[(4-Fluorophenyl)sulfonyl]-2,4-diisopropyl-N-(2-pyridin-4-ylethyl)benzenesulfonamide]	–	210 to 211 °C	–	–	1.5	1
COc1ccc(S(=O)(=O)c2ccccc2)cc1S(=O)(=O)NCCc1cccnc1 [Example 678, 2-Methoxy-5-(phenylsulfonyl)-N-(2-pyridin-3-ylethyl)benzenesulfonamide]	–	181 to 183 °C	–	1.6	–	–
CN(CCNS(=O)(=O)c1cc(S(=O)(=O)c2ccccc2)ccc1C(F)(F)F)C(=O)N(C)c1ccccc1 [Example 836, N-[2-(methyl{[methyl(phenyl)amino]carbonyl}amino)ethyl]-5-(phenylsulfonyl)-2-(trifluoromethyl)benzenesulfonamide]	210 nM	–	1990 nM	2.8	–	–
O=C(O)c1cccc(-c2cccc(CNS(=O)(=O)c3cc(S(=O)(=O)c4ccccc4)ccc3C(F)(F)F)c2)c1 [Example 996, 3′-[({[5-(phenylsulfonyl)-2-(trifluoromethyl)phenyl]sulfonyl}amino)methyl]biphenyl-3-carboxylic acid]	300 nM	–	3010 nM	–	–	–
CC(C)c1ccc(S(=O)(=O)c2ccccc2)cc1S(=O)(=O)NCC(O)c1ccccn1 (stereo not shown) [Example 728, N-(2-hydroxy-2-pyridin-2-ylethyl)-2-isopropyl-5-(phenylsulfonyl)benzene-sulfonamide]	4000 nM	–	–	3.1	–	–

Results, then the compound that gave them:

IC50 (SFRP-1 [1])	melting point	EC50 (SFRP-1 [2])	fold induction at 10 µM (SFRP-1 [2])	fold induction at 15 µM (SFRP-1 [2]; [3])	fold induction at 15 µM (SFRP-1 [2]; [4])	Compound
600 nM	160 to 162 °C	6650 nM	1.6	–	–	CCCc1ccc(S(=O)(=O)c2ccc(F)cc2)cc1S(=O)(=O)NCCc1ccncc1 [Example 875, 5-[(4-Fluorophenyl)sulfonyl]-2-propyl-N-(2-pyridin-4-ylethyl)benzenesulfonamide]
1600 nM	151 to 153 °C	–	–	2.2	1.3	CCCc1ccc(S(=O)(=O)c2ccc(F)cc2)cc1S(=O)(=O)NC1CCN(C(=O)OC(C)(C)C)CC1 [Example 567, tert-Butyl 4-[({5-[(4-fluorophenyl)sulfonyl]-2-propylphenyl}sulfonyl)amino]piperidine-1-carboxylate]
1100 nM	130 to 132 °C	–	2.8	–	–	CC(C)c1ccc(S(=O)(=O)c2ccccc2)cc1S(=O)(=O)NC1CCN(C(=O)c2ccc3ccccc3c2)CC1 [Example 809, 2-Isopropyl-N-[1-(2-naphthoyl)piperidin-4-yl]-5-(phenylsulfonyl)benzenesulfonamide]
900 nM	140 to 142 °C	–	3	–	–	CC(C)c1ccc(S(=O)(=O)c2ccccc2)cc1S(=O)(=O)NC1CCN(C(=O)c2ccc(C(F)(F)F)cc2)CC1 [Example 807, 2-Isopropyl-5-(phenylsulfonyl)-N-{1-[4-(trifluoromethyl)benzoyl]piperidin-4-yl}benzenesulfonamide]
230 nM	210 to 212 °C	238 nM	2.8	–	–	CC(C)c1ccc(S(=O)(=O)c2ccccc2)cc1S(=O)(=O)NC1CCN(C(=O)c2ccccc2F)CC1 [Example 806, N-[1-(2-Fluorobenzoyl)piperidin-4-yl]-2-isopropyl-5-(phenylsulfonyl)benzenesulfonamide]
1400 nM and 1600 nM	113 to 115 °C	–	–	3.3	1.3	CCCc1ccc(S(=O)(=O)c2ccc(F)cc2)cc1S(=O)(=O)NCCc1ccccn1 [Example 564, 5-[(4-Fluorophenyl)sulfonyl]-2-propyl-N-(2-pyridin-2-ylethyl)benzenesulfonamide]
–	176 to 178 °C	–	1.2	–	–	COc1ccc(S(=O)(=O)c2ccccc2)cc1S(=O)(=O)NC1CCOCC1 [Example 689, 2-Methoxy-5-(phenylsulfonyl)-N-(tetrahydro-2H-pyran-4-yl)benzenesulfonamide]
1950 nM	111 to 113 °C	2000 nM	3.1	–	–	CCCc1ccc(S(=O)(=O)c2ccc(F)cc2)cc1S(=O)(=O)NCCc1cccnc1 [Example 874, 5-[(4-Fluorophenyl)sulfonyl]-2-propyl-N-(2-pyridin-3-ylethyl)benzenesulfonamide]
1700 nM and 2700 nM	131 to 133 °C	–	–	1.6	0.9	CCCc1ccc(S(=O)(=O)c2ccc(F)cc2)cc1S(=O)(=O)NC1CCOCC1 [Example 560, 5-[(4-Fluorophenyl)sulfonyl]-2-propyl-N-(tetrahydro-2H-pyran-4-yl)benzenesulfonamide]
300 nM	215 to 218 °C	–	3	–	–	CC(C)c1ccc(S(=O)(=O)c2ccccc2)cc1S(=O)(=O)NC1CCN(C(=O)c2cccc(F)c2)CC1 [Example 804, N-[1-(3-Fluorobenzoyl)piperidin-4-yl]-2-isopropyl-5-(phenylsulfonyl)benzenesulfonamide]
300 nM	154 to 157 °C	1350 nM	–	–	–	CN1[C@@H]2CC[C@H]1CC(NS(=O)(=O)c1cc(S(=O)(=O)c3ccccc3)ccc1C(F)(F)F)C2 (relative stereo) [Example 1035, N-[(1R*, 5S*)-8-Methyl-8-azabicyclo[3.2.1]oct-3-yl]-5-(phenylsulphonyl)-2-(trifluoromethyl)benzenesulfonamide]
4000 nM	141 to 143 °C	–	–	2.2	1	CC(C)c1cc(C(C)C)c(S(=O)(=O)c2ccc(F)cc2)cc1S(=O)(=O)NCCC1CCOCC1 [Example 630, 5-[(4-Fluorophenyl)sulfonyl]-2,4-diisopropyl-N-[2-(tetrahydro-2H-pyran-4-yl)ethyl]benzenesulfonamide]
–	202 to 205 °C	–	–	1.2	1	CC(C)c1cc(C(C)C)c(S(=O)(=O)c2ccc(F)cc2)cc1S(=O)(=O)NC1CCCC1 [Example 621, N-Cyclopentyl-5-[(4-fluorophenyl)sulfonyl]-2,4-diisopropylbenzenesulfonamide]
–	202 to 204 °C	–	–	3	1	CC(C)c1cc(C(C)C)c(S(=O)(=O)c2ccc(F)cc2)cc1S(=O)(=O)NC1Cc2ccccc2C1 [Example 634, N-(2,3-Dihydro-1H-inden-2-yl)-5-[(4-fluorophenyl)sulfonyl]-2,4-diisopropylbenzenesulfonamide]
